Read-outs that look alike come from different tables or passages of the source.
Tests used:
CUCRC042 CRC PDTX model = assay: Patient derived tumor xenograft efficacy, CUCRC042; assay type: in vivo, mice; settings: 25 mg/kg orally twice daily, 22–56 days, end of study tumor volumes
Method: (§1) For patient tumor xenografts, surgical specimens of patients undergoing either removal of a primary or metastatic tumor at the University of Colorado Hospital are implanted subcutaneously into five mice for each patient with a 10-G trochar. After a subsequent growth and passage in mice, tumors are excised, and expanded into cohorts for treatment (n = 6–15 per group). Mice were treated with PF-309 or vehicle (0.5% methylcellulose) for 22–56 days (until control tumor volume reach ∼1500 mm^3) twice daily (BID) by oral gavage (PO). Monitoring of mice and measurements of tumors were conducted as described above. % Growth Inhibition= (average control volume−average treated volume)/average control volume×100% In addition to the cell line xenografts, we also treated 12 different patient derived tumor xenograft (PDTX) CRC models with PF-309 (Figure 6). We were unable to assess how ABCB1 gene expression correlated with efficacy in these models. The PDTX models are propagated in vivo, are not immortalized, and are not grown in in vitro culture. […] Tumor and plasma sample pairs were collected from animals at the end of study for eight tumor models (three cell line xenografts and five PDTX models) and concentrations of PF-309 were measured. […]

CUCRC047 CRC PDTX model = assay: Patient derived tumor xenograft efficacy, CUCRC047; assay type: in vivo, mice; settings: 25 mg/kg orally twice daily, 22–56 days, end of study tumor volumes
Method: as §1

CRC cell lines = assay: Proliferation assays with and without P-gp inhibitor CP-100356, subset of CRC cell lines; assay type: cell-based, human; settings: 0.625 μM CP-100356; five out of the six CRC cell lines
Method: Cytotoxic/proliferation effects were determined using the sulforhodamine B (SRB) assay (Skehan et al., [1990]) or by resazurin. Briefly, cells in logarithmic growth phase were transferred to 96 well flat bottom plates with lids. […] Media was removed and cells were fixed with cold 10% trichloroacetic acid for 30 min at 4°C. Cells were then washed with water and stained with 0.4% SRB (Fisher Sci., Pittsburgh, PA, USA) for 30 min at room temperature, washed again with 1% acetic acid, followed by stain solubilization with 10 mM tris at room temperature. The plate was then read on a plate reader (Biotek Synergy 2, Winooski, VT, USA) set at an absorbance wavelength of 565 nm. Cell proliferation curves were derived from the raw absorbance (OD) data.

Caco-2 = assay: Cell proliferation assay, Caco-2; assay type: cell-based; settings: Homo sapiens
Method: Cytotoxic/proliferation effects were determined using the sulforhodamine B (SRB) assay (Skehan et al., [1990]) or by resazurin. Briefly, cells in logarithmic growth phase were transferred to 96 well flat bottom plates with lids. One-hundred microliter cell suspensions containing 1500–5000 viable cells were plated into each well and incubated overnight prior to exposure with increasing concentrations of PF-309 for 3–5 days, dependent upon cell type. Media was removed and cells were fixed with cold 10% trichloroacetic acid for 30 min at 4°C. Cells were then washed with water and stained with 0.4% SRB (Fisher Sci., Pittsburgh, PA, USA) for 30 min at room temperature, washed again with 1% acetic acid, followed by stain solubilization with 10 mM tris at room temperature. The plate was then read on a plate reader (Biotek Synergy 2, Winooski, VT, USA) set at an absorbance wavelength of 565 nm. Cell proliferation curves were derived from the raw absorbance (OD) data.
Since PF-309 appeared to be a strong P-gp and BCRP substrates, we sought to evaluate if the transporters influenced sensitivity in vitro. We evaluated the sensitivity of CRC cell lines to PF-309 treatment in a panel of 27 lines. Cells were exposed to PF-309 at a range of concentrations for 72 h and cell content measured by SRB assay (see Pitts et al., [2013]). […]

Cc1nc(Nc2n[nH]c3c2CN(C(=O)N[C@H](CN(C)C)c2ccccc2)C3(C)C)c2sccc2n1 [PF-309] was tested, and the “% Growth inhibition” value (CUCRC042 CRC PDTX model) was 52%, the “% Growth inhibition” value (CUCRC047 CRC PDTX model) was −24% and the “fold change in the IC50 of PF-309 caused by CP-100356” value (CRC cell lines) was 4–100 fold. The IC50 (Caco-2; Caco-2, CACO2, 72 h, SRB assay, read-out: IC50) was > 1000 nM and the IC50 (Caco-2; Caco-2, PF-309 alone, 72 h, read-out: PF-309 IC50) was 300 nM.

Source: article PMC3605511, “Tumor P-Glycoprotein Correlates with Efficacy of PF-3758309 in in vitro and in vivo Models of Colorectal Cancer” (Frontiers in Pharmacology, 2013)
